Assay results taken from US20260130933A1, “PHARMACEUTICAL COMPOSITION FOR PREVENTION OR TREATMENT OF NEPHROPATHY AND/OR DIABETES MELLITUS, COMPRISING ENAVOGLIFLOZIN” (DAEWOONG PHARMACEUTICAL CO., LTD., priority 2022, published 2026).

Assay: Example 2: phase 3 trial, enavogliflozin 0.3 mg vs dapagliflozin 10 mg once a day for 24 weeks added to metformin in patients with type 2 diabetes (same efficacy, exploratory and safety endpoints)
Assay type: in vivo, human
Method: Subjects who met the inclusion/exclusion criteria were administered a placebo of the clinical trial drug under single-blind (subject blinding) conditions during a 2-week run-in period while continuing to receive metformin. […] The randomized subjects were administered two tablets of the clinical trial drug for each administration group once a day, and then visited the institution at weeks 6, 12, 18, and 24 during the 24-week administration period to conduct efficacy and safety evaluations.
• 1. Change in HbA1c at week 24 after administration of clinical trial drug compared to Visit 2 (randomization)
• 1. Change in HbA1c at each time point of weeks 6, 12, and 18 after administration of clinical trial drug compared to Visit 2 (randomization) • 2. Change in FPG at each time point of weeks 6, 12, 18, and 24 after administration of clinical trial drug compared to Visit 2 (randomization) • 3. Proportion of subjects achieving HbA1c<7% at each time point of weeks 6, 12, 18, and 24 after administration of clinical trial drug • 4. Proportion of subjects achieving HbA1c<6.5% at each time point of weeks 6, 12, 18, and 24 after administration of clinical trial drug • 5. Proportion of subjects achieving therapeutic response (HbA1c change (HbA1c at Visit 2-HbA1c at each evaluation time point)>0.5% or HbA1c<7% at each evaluation time point compared to Visit 2 (randomization)) at each time point of weeks 6, 12, 18 and 24 after administration of clinical trial drug
• 1. Change in fasting c-peptide at each time point of weeks 6, 12, 18, and 24 after administration of clinical trial drug compared to Visit 2 (randomization) • 2. Change in body weight at each time point of weeks 6, 12, 18, and 24 after administration of clinical trial drug compared to Visit 2 (randomization) • 3. Change in fasting lipid concentration (total cholesterol, LDL-C, HDL-C, and triglycerides) at each time point of weeks 6, 12, 18, and 24 after administration of clinical trial drug compared to Visit 2 (randomization) • 4. Changes in systolic or diastolic blood pressure at each time point of weeks 6, 12, 18, and 24 after administration of clinical trial drug compared to Visit 2 (randomization) • 5. Changes in β-cell function and insulin resistance measured by HOMA-β and HOMA-IR at each time point of weeks 6, 12, 18, and 24 after administration of clinical trial drug compared to Visit 2 (randomization) • 6. Changes in renal function-related indicators (UACR, UGCR) measured by UACR at each time point of weeks 6, 12, 18, and 24 after administration of clinical trial drug compared to Visit 2 (randomization) • 7. Changes in obesity-related indicators (adiponectin, leptin) at each time point of weeks 6, 12, 18, and 24 after administration of clinical trial drug compared to Visit 2 (randomization)

[1] = Week 18, mPPS1, enavogliflozin minus dapagliflozin
[2] = Week 18, mPPS2, enavogliflozin minus dapagliflozin
[3] = Week 24, PPS, enavogliflozin minus dapagliflozin

Q: For `OC[C@H]1O[C@@H](c2cc(Cc3ccc(C4CC4)cc3)c(Cl)c3c2CCO3)[C@H](O)[C@@H](O)[C@@H]1O` [Enavogliflozin, (2S,3R,4R,5S,6R)-2-(7-chloro-6 (4-cyclopropylbenzyl)-2,3-dihydrobenzofuran-4-yl)-6-(hydroxymethyl)tetrahydro-2H-pyran-3,4,5-triol], which “LDL-C, Mean (SD)” value (Week 18, mPPS1) is on record?
A: The value was 85.75(29.78) mg/dL.

Q: And the “LDL-C, Median” value (Week 18, mPPS1)?
A: Its value is 77.50 mg/dL.

Q: And the “Triglycerides change from baseline, ANCOVA LS mean (SE)” value (Week 18, mPPS1)?
A: The value was −4.99(5.99) mg/dL.

Q: And the “Triglycerides change from baseline, Mean (SD)” value (Week 18, mPPS1)?
A: Its value is −2.70(78.86) mg/dL.

Q: And the “Triglycerides change from baseline, Median” value (Week 18, mPPS1)?
A: The value was -2.50 mg/dL.

Q: And the “Triglycerides, Mean (SD)” value (Week 18, mPPS1)?
A: Its value is 118.10(55.93) mg/dL.

Q: And the “Triglycerides, Median” value (Week 18, mPPS1)?
A: The value was 108.00 mg/dL.

Q: And the “HDL-C change from baseline, LS mean difference” value [1]?
A: The value was -0.62 mg/dL.

Q: What about the “LDL-C change from baseline, LS mean difference” value [1] of the same molecule?
A: Its value is -1.15 mg/dL.

Q: What about the “triglycerides change from baseline, LS mean difference” value [1] of the same molecule?
A: The value was -6.87 mg/dL.

Q: What about the “Diastolic blood pressure change from baseline, ANCOVA LS mean (SE)” value (Week 18, mPPS2) of the same molecule?
A: The value was −4.80 mmHg.

Q: What about the “Diastolic blood pressure change from baseline, Mean (SD)” value (Week 18, mPPS2) of the same molecule?
A: The value was −5.05 mmHg.

Q: What about the “Diastolic blood pressure change from baseline, Median” value (Week 18, mPPS2) of the same molecule?
A: The value was −5.00 mmHg.

Q: And the “Diastolic blood pressure, Mean (SD)” value (Week 18, mPPS2)?
A: The value was 71.85 mmHg.

Q: And the “Diastolic blood pressure, Median” value (Week 18, mPPS2)?
A: The value was 71.00 mmHg.

Q: And the “Systolic blood pressure change from baseline, ANCOVA LS mean (SE)” value (Week 18, mPPS2)?
A: The value was −6.69(1.12) mmHg.

Q: And the “Systolic blood pressure change from baseline, Mean (SD)” value (Week 18, mPPS2)?
A: The value was −7.04(10.51) mmHg.

Q: What about the “Systolic blood pressure change from baseline, Median” value (Week 18, mPPS2) of the same molecule?
A: Its value is −9.00 mmHg.

Q: What about the “Systolic blood pressure, Mean (SD)” value (Week 18, mPPS2) of the same molecule?
A: The value was 122.70(12.89) mmHg.

Q: And the “Systolic blood pressure, Median” value (Week 18, mPPS2)?
A: The value was 122.00 mmHg.

Q: What about the “diastolic blood pressure change from baseline, LS mean difference” value [2] of the same molecule?
A: The value was −0.70 mmHg.

Q: And the “systolic blood pressure change from baseline, LS mean difference” value [2]?
A: The value was −0.72 mmHg.

Q: And the Adiponectin change from baseline, ANCOVA LS mean (SE) (Week 24, PPS)?
A: The Adiponectin change from baseline, ANCOVA LS mean (SE) was 1.67 µg/mL.

Q: What about the Adiponectin change from baseline, Mean (SD) (Week 24, PPS) of the same molecule?
A: The Adiponectin change from baseline, Mean (SD) was 1.72 µg/mL.

Q: What about the Adiponectin change from baseline, Median (Week 24, PPS) of the same molecule?
A: The Adiponectin change from baseline, Median was 1.21 µg/mL.

Q: What about the Adiponectin, Mean (SD) (Week 24, PPS) of the same molecule?
A: Its Adiponectin, Mean (SD) is 8.68 µg/mL.

Q: And the Adiponectin, Median (Week 24, PPS)?
A: Its Adiponectin, Median is 7.64 µg/mL.

Q: And the “HOMA-IR change from baseline, ANCOVA LS mean (SE)” value (Week 24, PPS)?
A: Its value is −1.85.

Q: What about the “HOMA-IR change from baseline, Mean (SD)” value (Week 24, PPS) of the same molecule?
A: Its value is −1.69.

Q: What about the “HOMA-IR change from baseline, Median” value (Week 24, PPS) of the same molecule?
A: The value was −1.06.

Q: And the “HOMA-IR, Mean (SD)” value (Week 24, PPS)?
A: Its value is 1.76.

Q: And the “HOMA-IR, Median” value (Week 24, PPS)?
A: The value was 1.48.

Q: And the “HOMA-β change from baseline, ANCOVA LS mean (SE)” value (Week 24, PPS)?
A: The value was 6.94.

Q: And the “HOMA-β change from baseline, Mean (SD)” value (Week 24, PPS)?
A: Its value is 6.80.

Q: What about the “HOMA-β change from baseline, Median” value (Week 24, PPS) of the same molecule?
A: Its value is 4.00.

Q: And the “HOMA-β, Mean (SD)” value (Week 24, PPS)?
A: The value was 52.32.

Q: And the “HOMA-β, Median” value (Week 24, PPS)?
A: Its value is 42.00.

Q: What about the “Leptin change from baseline, ANCOVA LS mean (SE)” value (Week 24, PPS) of the same molecule?
A: The value was -2.40 ng/mL.

Q: And the “Leptin change from baseline, Mean (SD)” value (Week 24, PPS)?
A: Its value is -2.53 ng/mL.

Q: What about the “Leptin change from baseline, Median” value (Week 24, PPS) of the same molecule?
A: The value was -1.77 ng/mL.

Q: And the “Leptin, Mean (SD)” value (Week 24, PPS)?
A: Its value is 9.68 ng/mL.

Q: What about the “Leptin, Median” value (Week 24, PPS) of the same molecule?
A: The value was 7.45 ng/mL.

Q: What about the “UACR change from baseline, ANCOVA LS mean (SE)” value (Week 24, PPS) of the same molecule?
A: Its value is -24.29 g/kg.

Q: What about the “UACR change from baseline, Mean (SD)” value (Week 24, PPS) of the same molecule?
A: Its value is -18270 mg/kg.

Q: What about the “UACR change from baseline, Median” value (Week 24, PPS) of the same molecule?
A: The value was -1.10 g/kg.

Q: And the “UACR, Mean (SD)” value (Week 24, PPS)?
A: Its value is 19930 mg/kg.

Q: What about the “UACR, Median” value (Week 24, PPS) of the same molecule?
A: The value was 10.20 g/kg.

Q: And the “UGCR change from baseline, ANCOVA LS mean (SE)” value (Week 24, PPS)?
A: Its value is 60.48 mg/mg.

Q: And the “UGCR change from baseline, Mean (SD)” value (Week 24, PPS)?
A: Its value is 58.90 mg/mg.

Q: What about the “UGCR change from baseline, Median” value (Week 24, PPS) of the same molecule?
A: The value was 56.43 mg/mg.

Q: And the “UGCR, Mean (SD)” value (Week 24, PPS)?
A: The value was 60.43 mg/mg.

Q: And the “UGCR, Median” value (Week 24, PPS)?
A: The value was 57.88 mg/mg.

Q: What about the “HOMA-IR change from baseline, LS mean difference” value [3] of the same molecule?
A: The value was −0.53.

Q: What about the “HOMA-β change from baseline, LS mean difference” value [3] of the same molecule?
A: The value was −4.99.

Q: And the “UACR change from baseline, LS mean difference” value [3]?
A: The value was -6.93 g/kg.

Q: What about the “UGCR change from baseline, LS mean difference” value [3] of the same molecule?
A: Its value is 15.54 mg/mg.

Q: What about the “leptin change from baseline, LS mean difference” value [3] of the same molecule?
A: The value was -1.12 ng/mL.

Q: What about the “HDL-C change from baseline, ANCOVA LS mean (SE)” value (Week 24, mPPS1) of the same molecule?
A: Its value is 3.06(0.64) mg/dL.

Q: What about the “HDL-C change from baseline, Mean (SD)” value (Week 24, mPPS1) of the same molecule?
A: Its value is 2.75(6.70) mg/dL.

Q: And the “HDL-C change from baseline, Median” value (Week 24, mPPS1)?
A: Its value is 3.00 mg/dL.

Q: And the “HDL-C, Mean (SD)” value (Week 24, mPPS1)?
A: Its value is 53.69(10.72) mg/dL.

Q: What about the “HDL-C, Median” value (Week 24, mPPS1) of the same molecule?
A: Its value is 53.00 mg/dL.

Q: What about the “LDL-C change from baseline, ANCOVA LS mean (SE)” value (Week 24, mPPS1) of the same molecule?
A: The value was 1.64(1.92) mg/dL.

Q: And the “LDL-C change from baseline, Mean (SD)” value (Week 24, mPPS1)?
A: The value was 0.88(17.04) mg/dL.

Q: And the “LDL-C change from baseline, Median” value (Week 24, mPPS1)?
A: The value was 3.00 mg/dL.

Q: What about the “LDL-C, Mean (SD)” value (Week 24, mPPS1) of the same molecule?
A: The value was 87.40(29.52) mg/dL.

Q: And the “LDL-C, Median” value (Week 24, mPPS1)?
A: The value was 84.00 mg/dL.

Q: What about the “Triglycerides change from baseline, ANCOVA LS mean (SE)” value (Week 24, mPPS1) of the same molecule?
A: The value was −5.07(5.14) mg/dL.

Q: What about the “Triglycerides change from baseline, Mean (SD)” value (Week 24, mPPS1) of the same molecule?
A: The value was −2.47(76.88) mg/dL.

Q: And the “Triglycerides change from baseline, Median” value (Week 24, mPPS1)?
A: Its value is 0.00 mg/dL.
